Source: PMC6264553, “Synthesis and In Vitro Protein Tyrosine Kinase Inhibitory Activity of Furan-2-yl(phenyl)methanone Derivatives” (Molecules, 2011)

Experiments:
[1] = biological target: Protein Tyrosine Kinase (PTK); assay: PTK inhibitory activity, ELISA tyrosine kinase assay with poly-Glu-Tyr substrate; type: biochemical, rat; details: for IC50: tyrosine kinase extracted from rat brain tissue, means of three experiments, NA = not active at 5 μg/mL, read-out: Protein Tyrosine Kinase (PTK) inhibition activity, IC50; for PTK inhibitory activity (in words): in vitro, SAR discussion
Description: The activities of PTKs were tested using ELISA. The tyrosine kinase was extracted from brain tissue of rat, and microtiter plates were coated using poly-Glu-Tyr (PGT) as substrates. If the tyrosine residues of PGT were phosphorylated by PTKs, they bound to phospho-specific monoclonal antibody that was labeled specifically with HRP. The absorbance was measured to reflect the activity of PTK.
The phosphorylation assays were performed at 37 °C in a final volume of 40 µL tyrosine kinase. The concentrations of PTKs used to construct calibration curves were as follows: 600, 500, 400, 300, 200 and 100 × 10^−7 U/mL for PTK. A concentration of 500 × 10^−7/μL was used for each inhibitor. Phosphorylation reactions were initiated with the addition of 40 mM ATP (10 μL) into each vessel, and the plate was incubated at 37 °C for 30 min. After completion of reaction, liquid was decanted and the vessels were washed four times with Tween-PBS. One hundred microliters of blocking solution was added to the vessels and incubated at 37 °C for 30 min. After washing the plate with Tween-PBS, anti-phosphotyrosine (50 μL) was added to the vessels and incubated at 37 °C for 30 min. The reaction liquid was decanted and the remaining solution was removed by rinsing four times with Tween-PBS. One hundred μL of HRP coloring agent was added and incubated at 37 °C for 15 min. The reaction was terminated by addition of 1 N sulfuric acid (100 μL /well). The absorbance of the reaction was measured at 450 nm on a microplate reader.

Row | melting point | IC50 [1] | PTK inhibitory activity (in words) [1] | Structure (SMILES)
1 | 138 to 140 °C | 9.56 µM |  | O=C(c1ccco1)c1cc(Br)c(Br)c(O)c1O [Compound 22d, (4,5-Dibromo-2,3-dihydroxyphenyl)(furan-2-yl)methanone]
2 | 96 to 98 °C |  |  | COc1c(Br)c(C(=O)c2ccco2)c(Br)c(OC)c1OC [Compound 21b, (2,6-Dibromo-3,4,5-trimethoxyphenyl)(furan-2-yl)methanone]
3 |  | 6.42 µM |  | O=C(c1ccco1)c1ccc(O)c(O)c1O [Compound 4b, Furan-2-yl(2,3,4-trihydroxyphenyl)methanone]
4 | 132 to 134 °C | 4.66 µM |  | O=C(c1ccc(O)c(O)c1)c1ccco1 [Compound 4a, (3,4-Dihydroxyphenyl)(furan-2-yl)methanone]
5 | 88 to 90 °C |  |  | O=C(c1ccco1)c1cc(Br)ccc1O [Compound 4c, (5-Bromo-2-hydroxyphenyl)(furan-2-yl)methanone]
6 | 150 to 152 °C | 4.62 µM |  | O=C(c1ccco1)c1cc(O)c(O)c(O)c1Cl [Compound 22c, (2-Chloro-3,4,5-trihydroxyphenyl)(furan-2-yl)methanone]
7 | 66 to 68 °C | 12.7 µM |  | O=C(c1ccco1)c1c(O)cccc1O [Compound 18b, (2,6-Dihydroxyphenyl)(furan-2-yl)methanone]
8 | 58 to 60 °C |  |  | COc1ccc(C(=O)c2ccco2)cc1 [Compound 3d, Furan-2-yl(4-methoxyphenyl)methanone]
9 | 168 to 170 °C |  |  | COc1ccc(C(=O)c2ccco2)c(OC)c1O [Compound 3b, Furan-2-yl(3-hydroxy-2,4-dimethoxyphenyl)methanone]
10 | 82 to 84 °C |  |  | O=C(c1ccc(Br)o1)c1cc(Br)ccc1O [Compound 8b, (5-Bromo-2-hydroxyphenyl)(5-bromofuran-2-yl)methanone]
11 | 66 to 70 °C |  |  | COc1ccc(Br)cc1C(=O)c1ccco1 [Compound 3c, (5-Bromo-2-methoxyphenyl)(furan-2-yl)methanone]
12 | 100 to 102 °C |  |  | O=C(c1ccc(O)c(Br)c1)c1ccco1 [Compound 22a, (3-Bromo-4-hydroxyphenyl)(furan-2-yl)methanone]
13 | 184 to 186 °C |  | no activity | O=C(c1ccc(O)c(O)c1)c1cc(Br)c(Br)o1 [Compound 14, (4,5-Dibromofuran-2-yl)(3,4-dihydroxyphenyl)methanone]
14 | 107 to 109 °C |  |  | COc1ccc(C(=O)c2cc(Br)c(Br)o2)cc1O [Compound 13, (4,5-Dibromofuran-2-yl)(3-hydroxy-4-methoxyphenyl)methanone]
15 | 98 to 100 °C |  |  | COc1ccc(Br)cc1C(=O)c1ccc(Br)o1 [Compound 7b, (5-Bromo-2-methoxyphenyl)(5-bromofuran-2-yl)methanone]
16 | 64 to 66 °C | 13.2 µM |  | O=C(c1ccco1)c1cccc(O)c1O [Compound 18a, (2,3-Dihydroxyphenyl)(furan-2-yl)methanone]
17 | 102 to 104 °C |  |  | COc1c(O)c(C(=O)c2ccco2)cc(Br)c1Br [Compound 21d, (4,5-Dibromo-2-hydroxy-3-methoxyphenyl)(furan-2-yl)methanone]
18 | 98 to 100 °C |  |  | COc1ccc(C(=O)c2ccco2)cc1OC [Compound 3a, (3,4-Dimethoxyphenyl)(furan-2-yl)methanone]
19 |  | 2.72 µM | strongest activity | O=C(c1ccc(O)c(O)c1)c1ccc(Br)o1 [Compound 8c, (5-Bromofuran-2-yl)(3,4-dihydroxyphenyl)methanone]
20 | 148 to 150 °C |  | no activity | O=C(c1ccco1)c1c(Br)c(O)c(O)c(O)c1Br [Compound 22b, (2,6-Dibromo-3,4,5-trihydroxyphenyl)(furan-2-yl)methanone]
21 | 80 to 82 °C |  |  | COc1cc(C(=O)c2ccco2)c(Cl)c(OC)c1OC [Compound 21c, (2-Chloro-3,4,5-trimethoxyphenyl)(furan-2-yl)methanone]
22 | 64 to 66 °C |  |  | COc1cccc(OC)c1C(=O)c1ccco1 [Compound 17b, (2,6-Dimethoxyphenyl)(furan-2-yl)methanone]
23 | 132 to 134 °C | 5.31 µM |  | O=C(c1ccc(Br)o1)c1ccc(O)c(O)c1O [Compound 8a, (5-Bromofuran-2-yl)(2,3,4-trihydroxyphenyl)methanone]
